From PMC2775099 (Bioorganic & medicinal chemistry, 2009)

Target: rat nNOS (Rattus norvegicus, UniProt P29476)
Details: for potency with nNOS relative to 1: amine in the chain replaced with ether or amide

SMILES | loss of binding affinity relative to 1 (nNOS, amine replaced with amide) | potency with nNOS relative to 1
Cc1cc(N)nc(CC2CNCC2NC(=O)CNCCc2cccc(F)c2)c1 (stereo not drawn) [compound 3, N-(4-((6-Amino-4-methylpyridin-2-yl)-methyl)-pyrrolidin-3-yl)-2-(3-fluorophenethylamino)-acetamide] | 3-4 fold | –
Cc1cc(N)nc(CC2CNCC2NCCOCCc2cccc(F)c2)c1 (stereo not drawn) [compound 4, 6-((4-(2-(3-Fluorophenethoxy)ethylamino)pyrrolidin-3-yl)methyl)-4-methyl-pyridin-2-amine] | – | significant loss in potency
Cc1cc(N)nc(CC2CNCC2OCCNC(=O)Cc2cccc(F)c2)c1 (stereo not drawn) [compound 6, N-(2-(4-((6-Amino-4-methylpyridin-2-yl)-methyl)pyrrolidin-3-yloxy)ethyl)-2-(3-fluorophenyl)acetamide] | – | significant loss in potency
